Activity calls are given as the source filed them.
Columns and labels:
[1] = biological target: Metabotropic glutamate receptor 1 (Rattus norvegicus, UniProt P23385); experiment: Antagonist activity at rat mGluR1a expressed in CHO cells assessed as inhibition of glutamate-evoked increase in calcium […] preincubated 5 mins before glutamate challenge; type: functional, cell-based
[2] = Ratio of free drug level in cerebrospinal fluid to steady state unbound plasma in iv dosed rat; type: ADME, organism-based
[3] = Lipophilicity, log D of the compound; type: physicochemical; settings: octanol/water
Liver microsomes [4] = experiment: Metabolic stability in human liver microsomes assessed as intrinsic clearance; type: ADME, Microsome
Rattus norvegicus [5] = experiment: Antinociceptive activity in anaesthetized rat assessed as maximal inhibition of noxious pinch-induced electromyograph response at 8 to 16 fold free Ki concentration in cerebrospinal fluid measured after 1 hr; type: functional, organism-based
[6] = biological target: Metabotropic glutamate receptor 1 (Homo sapiens, UniProt Q13255); experiment: Antagonist activity at mGluR1; type: functional
Chain of Metabotropic glutamate receptor 1 (Homo sapiens, UniProt Q13255) (Q13255 whole entry): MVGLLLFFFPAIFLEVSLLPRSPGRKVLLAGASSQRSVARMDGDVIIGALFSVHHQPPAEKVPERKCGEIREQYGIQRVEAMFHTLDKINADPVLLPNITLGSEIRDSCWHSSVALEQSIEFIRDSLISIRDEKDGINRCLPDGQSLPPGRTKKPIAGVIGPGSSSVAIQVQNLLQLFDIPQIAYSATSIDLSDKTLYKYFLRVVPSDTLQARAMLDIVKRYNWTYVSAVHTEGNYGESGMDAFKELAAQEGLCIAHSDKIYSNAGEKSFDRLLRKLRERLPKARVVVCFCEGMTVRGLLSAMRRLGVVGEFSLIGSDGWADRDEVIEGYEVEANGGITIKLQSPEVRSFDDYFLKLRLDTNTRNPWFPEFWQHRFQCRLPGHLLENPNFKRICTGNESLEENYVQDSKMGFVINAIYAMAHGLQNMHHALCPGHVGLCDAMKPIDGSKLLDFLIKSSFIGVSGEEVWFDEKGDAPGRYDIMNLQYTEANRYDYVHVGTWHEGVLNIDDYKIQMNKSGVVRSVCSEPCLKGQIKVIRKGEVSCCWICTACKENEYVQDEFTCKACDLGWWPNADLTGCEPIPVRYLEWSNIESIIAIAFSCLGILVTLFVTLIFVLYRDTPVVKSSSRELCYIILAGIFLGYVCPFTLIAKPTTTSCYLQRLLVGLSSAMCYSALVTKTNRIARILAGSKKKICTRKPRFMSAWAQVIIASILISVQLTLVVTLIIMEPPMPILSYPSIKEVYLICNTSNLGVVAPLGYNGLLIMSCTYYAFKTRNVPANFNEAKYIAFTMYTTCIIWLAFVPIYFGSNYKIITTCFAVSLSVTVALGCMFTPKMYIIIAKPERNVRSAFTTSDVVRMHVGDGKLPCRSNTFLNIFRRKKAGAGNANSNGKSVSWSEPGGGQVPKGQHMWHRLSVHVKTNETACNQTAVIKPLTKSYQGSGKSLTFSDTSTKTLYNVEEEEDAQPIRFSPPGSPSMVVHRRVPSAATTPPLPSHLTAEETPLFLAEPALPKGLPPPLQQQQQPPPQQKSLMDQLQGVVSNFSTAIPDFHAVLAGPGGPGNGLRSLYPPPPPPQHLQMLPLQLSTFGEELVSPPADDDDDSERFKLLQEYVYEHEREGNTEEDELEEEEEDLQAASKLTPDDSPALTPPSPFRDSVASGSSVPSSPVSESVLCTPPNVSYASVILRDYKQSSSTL

[7] = Half life in rat at 1 mg/kg; type: ADME, organism-based; parameters: dose 1 mg/kg; settings: in vivo
[8] = Protein binding in rat plasma at 1 mg/kg; type: ADME, organism-based; parameters: dose 1 mg/kg; settings: read-out: PPB (converted)
Rattus norvegicus [9] = experiment: Antinociceptive activity in anaesthetized rat assessed as inhibition of low threshold tactile stimulus-induced electromyograph response at 22 mg/kg, iv administered as bolus dose for 30 seconds and 9.6 mg/kg/hr, iv administered via infusion measured after 1 hr; type: functional, organism-based
Liver microsomes [10] = experiment: Metabolic stability in rat liver microsomes assessed as intrinsic clearance; type: ADME, Microsome
[11] = Solubility of the compound; type: physicochemical
Rattus norvegicus [12] = experiment: Antinociceptive activity in anaesthetized rat assessed as maximal inhibition of noxious pinch-induced electromyograph response at 10 fold free Ki concentration in cerebrospinal fluid measured after 1 hr; type: functional, organism-based
[13] = Clearance in rat at 1 mg/kg; type: ADME, organism-based; parameters: dose 1 mg/kg; settings: in vivo
Rattus norvegicus [14] = experiment: Toxicity in anaesthetized electromyograph pinch rat model assessed as effect on sensory input to spinal cord at 22 mg/kg, iv administered as bolus dose for 30 seconds and 9.6 mg/kg/hr, iv administered via infusion; type: organism-based; settings: in vivo
Rattus norvegicus [15] = experiment: Free plasma concentration in anaesthetized electromyograph pinch rat model at 22 mg/kg, iv administered as bolus dose for 30 seconds and 9.6 mg/kg/hr, iv administered via infusion; type: ADME, organism-based; settings: in vivo
[16] = Oral bioavailability in rat at 1 mg/kg; type: ADME, organism-based; settings: in vivo
Rattus norvegicus [17] = experiment: Antinociceptive activity in anaesthetized rat assessed as inhibition of noxious pinch-induced electromyograph response at 22 mg/kg, iv administered as bolus dose for 30 seconds and 9.6 mg/kg/hr, iv administered via infusion measured after 1 hr; type: functional, organism-based
[18] = Volume of distribution in rat at 1 mg/kg; type: ADME, organism-based; parameters: dose 1 mg/kg; settings: in vivo
[19] = biological target: Metabotropic glutamate receptor 5 (Homo sapiens, UniProt P41594); experiment: Antagonist activity at mGluR5; type: functional
Chain of Metabotropic glutamate receptor 5 (P41594 whole entry, the tested form may be a part): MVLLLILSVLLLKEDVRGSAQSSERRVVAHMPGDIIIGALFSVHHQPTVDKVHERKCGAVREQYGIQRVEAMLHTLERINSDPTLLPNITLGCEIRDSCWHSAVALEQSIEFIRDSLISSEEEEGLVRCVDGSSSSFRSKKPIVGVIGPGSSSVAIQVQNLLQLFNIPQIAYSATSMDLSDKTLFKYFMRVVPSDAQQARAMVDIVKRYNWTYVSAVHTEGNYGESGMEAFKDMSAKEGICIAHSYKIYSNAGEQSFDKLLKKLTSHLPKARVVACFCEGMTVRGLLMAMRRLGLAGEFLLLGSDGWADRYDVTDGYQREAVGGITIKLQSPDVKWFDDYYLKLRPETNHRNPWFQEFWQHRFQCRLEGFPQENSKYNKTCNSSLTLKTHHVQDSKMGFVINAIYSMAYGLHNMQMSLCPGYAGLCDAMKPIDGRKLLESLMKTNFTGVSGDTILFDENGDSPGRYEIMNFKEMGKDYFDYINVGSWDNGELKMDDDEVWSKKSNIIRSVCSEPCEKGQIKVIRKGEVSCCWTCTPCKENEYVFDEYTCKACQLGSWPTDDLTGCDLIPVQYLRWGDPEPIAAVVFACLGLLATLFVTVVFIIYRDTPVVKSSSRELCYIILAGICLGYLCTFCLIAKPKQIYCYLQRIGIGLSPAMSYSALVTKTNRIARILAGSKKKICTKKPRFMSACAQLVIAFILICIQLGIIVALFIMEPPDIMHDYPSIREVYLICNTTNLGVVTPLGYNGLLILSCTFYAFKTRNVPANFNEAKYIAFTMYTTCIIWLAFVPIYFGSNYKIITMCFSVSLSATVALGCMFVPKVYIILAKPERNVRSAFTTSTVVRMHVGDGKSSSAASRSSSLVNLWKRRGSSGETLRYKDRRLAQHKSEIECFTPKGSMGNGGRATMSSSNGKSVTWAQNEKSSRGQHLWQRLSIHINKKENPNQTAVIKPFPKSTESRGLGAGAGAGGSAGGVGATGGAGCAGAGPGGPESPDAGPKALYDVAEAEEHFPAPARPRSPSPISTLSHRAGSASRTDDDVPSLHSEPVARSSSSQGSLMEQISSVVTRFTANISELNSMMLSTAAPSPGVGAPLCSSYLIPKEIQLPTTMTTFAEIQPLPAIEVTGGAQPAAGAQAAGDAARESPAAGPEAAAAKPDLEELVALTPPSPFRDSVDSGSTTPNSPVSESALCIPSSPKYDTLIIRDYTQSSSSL

Rattus norvegicus [20] = experiment: Analgesic activity in awake rat at 0.3 mg/kg, iv administered as bolus dose for 30 seconds and 0.3 mg/kg/hr, iv administered via infusion measured after 1 hr; type: functional, organism-based
Rattus norvegicus [21] = experiment: Antinociceptive activity in anaesthetized rat assessed as inhibition of noxious pinch-induced electromyograph response at 0.3 mg/kg, iv administered as bolus dose for 30 seconds and 0.3 mg/kg/hr, iv administered via infusion measured after 1 hr; type: functional

Chain of Metabotropic glutamate receptor 1 (Rattus norvegicus, UniProt P23385) (P23385 whole entry): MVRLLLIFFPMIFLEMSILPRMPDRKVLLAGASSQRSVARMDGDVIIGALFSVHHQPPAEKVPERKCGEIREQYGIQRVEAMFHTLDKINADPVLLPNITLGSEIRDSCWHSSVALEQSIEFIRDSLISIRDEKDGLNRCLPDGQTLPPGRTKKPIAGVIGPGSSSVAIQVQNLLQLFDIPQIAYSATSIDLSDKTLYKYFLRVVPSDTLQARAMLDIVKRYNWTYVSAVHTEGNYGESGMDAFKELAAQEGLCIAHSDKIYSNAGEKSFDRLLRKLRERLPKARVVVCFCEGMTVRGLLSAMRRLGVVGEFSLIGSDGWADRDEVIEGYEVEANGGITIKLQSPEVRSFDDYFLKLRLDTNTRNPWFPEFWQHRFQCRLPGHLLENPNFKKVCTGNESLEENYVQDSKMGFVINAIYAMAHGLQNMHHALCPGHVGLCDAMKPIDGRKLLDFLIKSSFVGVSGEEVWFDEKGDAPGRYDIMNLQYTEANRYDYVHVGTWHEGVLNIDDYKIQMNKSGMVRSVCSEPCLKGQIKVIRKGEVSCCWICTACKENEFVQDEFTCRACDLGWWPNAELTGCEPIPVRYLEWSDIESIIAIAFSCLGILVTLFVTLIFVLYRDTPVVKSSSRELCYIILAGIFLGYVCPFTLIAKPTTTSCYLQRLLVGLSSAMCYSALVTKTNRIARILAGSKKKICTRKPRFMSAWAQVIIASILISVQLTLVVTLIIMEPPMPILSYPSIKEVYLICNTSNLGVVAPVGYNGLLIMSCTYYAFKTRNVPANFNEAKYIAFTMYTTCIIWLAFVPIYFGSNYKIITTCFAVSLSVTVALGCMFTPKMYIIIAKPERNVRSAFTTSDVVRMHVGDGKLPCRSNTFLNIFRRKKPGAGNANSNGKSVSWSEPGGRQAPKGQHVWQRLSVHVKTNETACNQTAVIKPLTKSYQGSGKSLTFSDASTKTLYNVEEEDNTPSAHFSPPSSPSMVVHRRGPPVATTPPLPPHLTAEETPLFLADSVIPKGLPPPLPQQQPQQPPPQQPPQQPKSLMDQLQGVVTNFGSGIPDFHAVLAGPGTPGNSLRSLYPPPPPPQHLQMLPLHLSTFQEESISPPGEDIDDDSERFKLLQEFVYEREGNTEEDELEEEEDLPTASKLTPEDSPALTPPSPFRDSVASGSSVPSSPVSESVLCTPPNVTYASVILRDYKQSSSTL

Structure (SMILES) | Ki [1] [nM] | also measured
c1ccc2c(NC3CCCCC3)ccnc2c1 | 6160 | –
c1nc(NC2CCCCCC2)c2cc(OCCN3CCOCC3)ncc2n1 | 6 | Kp uu [2]: 0.5; logD [3]: 3.4; clearance (Liver microsomes [4]): 24 µL/min/mg; inhibition (Rattus norvegicus [5]): Active
c1ccc2c(c1)CC(Nc1nccc3ccccc13)C2 | 1650 | –
NCCNc1cc2c(NC3CCCCC3)ncnc2cn1 | 2200 | –
OCCNc1cc2c(NCCO)ncnc2cn1 | 6150 | –
OCCCOc1cc2c(NC3CCCCC3)ncnc2cn1 | 33 | –
c1ccc2c(OC3CCCCC3)ncnc2c1 | 694 | –
COc1cc2c(NC3Cc4ccccc4C3)ncnc2cn1 | 115 | –
O=C1CCCN1CCOc1cc2c(NC3CCCCC3)ncnc2cn1 | 20 | –
Nc1cc2c(Nc3ccc(F)c(Cl)c3)ncnc2cn1 | – | IC50 [6]: 300 nM
OCCOCCNc1cc2c(NC3Cc4ccccc4C3)ncnc2cn1 | 3 | IC50 [6]: 3 nM; Kp uu [2]: 0.02; half-life [7]: 18 min; fraction unbound [8]: 0.19; logD [3]: 3; inhibition (Rattus norvegicus [9]): inactive; clearance (Liver microsomes [10]): 30 µL/min/mg; solubility [11]: Insoluble; clearance (Liver microsomes [4]): < 7 µL/min/mg; inhibition (Rattus norvegicus [12]): Active; clearance [13]: 26 mL/min/kg; Activity (Rattus norvegicus [14]): Non-toxic; Cp (Rattus norvegicus [15]): > 1000 nM; bioavailability [16]: 33%; inhibition (Rattus norvegicus [17]): Active; Vd [18]: 0.6 L/kg; IC50 [19]: > 3000 nM
CNc1ncnc2cnc(NC3Cc4ccccc4C3)cc12 | 160 | –
c1nc(NC2CCCCC2)c2cc(OCCN3CCOCC3)ncc2n1 | 42 | –
NCCCNc1cc2c(NC3CCCCC3)ncnc2cn1 | 200 | –
CN(C)CCNc1cc2c(NC3Cc4ccccc4C3)ncnc2cn1 | 102 | –
CNc1cc2c(NC3Cc4ccccc4C3)ncnc2cn1 | 14 | Kp uu [2]: 0.06; logD [3]: 2.9
C[C@H](Nc1ncnc2cnc(N(C)C)cc12)c1ccccc1 | 1400 | –

Structure (SMILES) | Ki [1] [nM] | also measured
c1nc(NC2CCCCC2)c2cc(NCCN3CCOCC3)ncc2n1 | 10 | Kp uu [2]: 0.07; logD [3]: 2.8
CN(C)c1cc2c(N(C)C3Cc4ccccc4C3)ncnc2cn1 | 300 | –
COCCNc1cc2c(NC3CCCCC3)ncnc2cn1 | 11 | –
c1ccc2c(c1)CC(Nc1cc3c(NC4Cc5ccccc5C4)ncnc3cn1)C2 | 31 | –
OCCNc1ncnc2cnc(NC3Cc4ccccc4C3)cc12 | 125 | –
OCCOc1cc2c(NC3CCCCC3)ncnc2cn1 | 177 | –
CN(C)c1cc2c(NC3Cc4ccccc4C3)ncnc2cn1 | 185 | –
COCCOc1cc2c(NC3CCCCC3)ncnc2cn1 | 101 | –
c1ccc2c(c1)CC(Nc1ncnc3ccccc13)C2 | 34 | –
CNc1cc2c(N(C)C3Cc4ccccc4C3)ncnc2cn1 | 54 | –
CN1CC[C@]23c4c5ccc(O)c4O[C@H]2[C@@H](O)C=C[C@H]3[C@H]1C5 [MORPHINE] | – | Activity (Rattus norvegicus [20]): Active; inhibition in vivo at 0.3 mg/kg (Rattus norvegicus [21]): 40%
c1ccc2c(NC3CCCCC3)ncnc2c1 | 27 | –
OCCNc1cc2c(NC3Cc4ccccc4C3)ncnc2cn1 | 21 | –
CN(C)c1cc2c(NC3CCCCC3)ncnc2cn1 | 199 | –
COCCNc1cc2c(NC3Cc4ccccc4C3)ncnc2cn1 | 5 | –
CCCC(C)Nc1ncnc2cnc(N(C)C)cc12 (centres undefined) | 858 | –

Source: ChEMBL document CHEMBL1153985, “In vitro and in vivo SAR of pyrido[3,4-d]pyramid-4-ylamine based mGluR1 antagonists” (Bioorg Med Chem Lett, 2009)
